How the values were obtained:
claudin-1 protein = experiment: Skin cohesion evaluation: claudin-1 protein expression in artificial skin treated with inflammation cocktail; type: cell-based; details: inflammation cocktail IFN-γ (20 ng/ml)+TNF-α (20 ng/ml), compositions at 50 ppm, FIG. 2
filaggrin protein = experiment: Moisturizing factor evaluation: filaggrin protein expression in artificial skin treated with inflammation cocktail; type: cell-based; details: inflammation cocktail IFN-γ (20 ng/ml)+TNF-α (20 ng/ml), compositions at 50 ppm, FIG. 3
PGE2 (Prostaglandin E2) = experiment: Skin redness evaluation: amount of PGE2 in artificial skin treated with inflammatory factor; type: cell-based; details: TNF-α+IFN-γ (20 ng/ml), FIG. 4
Excerpt: PGE2 is a factor that induces vasodilation and causes skin redness, wherein the smaller amount of PGE2, the less vasodilation induction, thereby suppressing the skin redness, and the skin redness evaluation results are shown in FIG. 4.

[1] = Cell toxicity of the composition; details: 50 ppm
Experimental: A composition was prepared by adding 1 g of (−)-epigallocatechin gallate 5 (EGCG) to 100 g of purified water or dimethyl sulfoxide (DMSO) to prepare a stock and diluting the stock to 50 ppm.

[2] = Dilution of stock in medium (state of the composition); type: physicochemical; details: 50 ppm in medium, from stock in purified water or DMSO
Excerpt: Because PEA was suspended at the 50 ppm, this composition was not used for an experiment.

mast cell degranulation = details: stated as known; cited from earlier work

Compound | expression level of claudin-1 protein (claudin-1 protein) | expression level of filaggrin protein (filaggrin protein) | also measured
Oc1cc(O)c2c(c1)O[C@H](c1ccc(O)c(O)c1)[C@H](O)C2 [Example 3, epicatechin] | recovered from the decrease in the protein expression of the claudin-1 protein | recovered from the decrease of the protein expression | amount of PGE2 (PGE2 (Prostaglandin E2)): the amount of PGE2 was suppressed
(−)-epigallocatechin gallate [EGCG] | – | – | cell toxicity [1]: cell toxicity
CCCCCCCCCCCCCCCC(=O)NCCO [Comparative Example 4, palmitoylethanolamide] | not recovered from the decrease in the protein expression of the claudin-1 protein | not recovered from the decrease of the protein expression | –
CCCCCCCCCCCCCCCC(=O)NCCO [PEA, palmitoylethanolamide] | – | – | state on dilution in medium [2]: suspended; effect of suppressing the mast cell degranulation (mast cell degranulation): no effect of suppressing the mast cell degranulation
(−)-epigallocatechin gallate [Comparative Example 7] | not recovered from the decrease in the protein expression of the claudin-1 protein | not recovered from the decrease of the protein expression | –
